{
  "source": "patent US7417025B2",
  "about": "“Use of poly-α2,8-sialic acid mimetic peptides to modulate NCAM functions” (Centre National de la Recherche Scientifique, priority 2002, dated 2008)",
  "key": {"[1]": {"tested_on": "subventricular zone explants (neuronal precursors)", "experiment": "Subventricular zone (SVZ) explant culture: cell migration in vitro", "type": "cell-based, mouse", "settings": "0.4 μM peptide"}, "[2]": {"tested_on": "subventricular zone explants (neuronal precursors)", "experiment": "Subventricular zone (SVZ) explant culture: cell migration in vitro", "type": "cell-based, mouse", "experimental": "Cultures of SVZ explants were performed as described in Chazal et al., precited. Briefly, 1-day-old mice were killed by rapid decapitation. Brains were dissected out and sectionned by Vibratome (Leica). The SVZ from the lateral wall of the anterior lateral ventricle horn was dissected out in HBSS medium (LIFE TECHNOLOGIES) and cut into 200-300 μm diameter explants. The explants were mixed with Matrigel (BECKTON DICKINSON) and cultured in four-well dishes. After polymerisation, the gel was overlaid with 400 μl of serum-free medium containing B-27 supplement (LIFE TECHNOLOGIES), in the presence or the absence of 40 μM of peptides (p65, p66, reverse p65, p21 or p22) and 70 U of Endo N per milliliter.\n(§1) After 48 h in culture, explants were examining directly (SVZ) or after overnight fixation with a 4% paraformaldehyde solution in PBS and immunostaining (DRGs). Observation was done using 2, 5×, 5×, 10× and 32× objectives (Axiovert 35M, ZEISS). Images were collected with a video camera (Cool View, PHOTONIC SCIENCE) and analysed using image-processing software (Visiolab1000, BIOCOM). Mean migration distance (calculated on five different experiments, including at least five explants per condition) or mean length of the longest neurite (calculated on two different experiments, including at least eight explants per condition), was the distance in micrometers between the explant edge and the border of the cell migration front. Four measurements were performed for each explant. The significance of the differences between the control and the different experimental conditions was calculated by Student's t test."}, "[3]": {"tested_on": "30H12 monoclonal antibody", "experiment": "Competitive binding to PSA-NCAM expressing cells (30H12)", "set-up": "dose or concentration left out as unconfirmed", "experimental": "FIGS. 12B, 12C and 12D: competitive binding to PSA-NCAM expressing cells. B: pre-incubation of p65 (1 mM) or p66 (1 mM) with MenB anti-PSA antibody. C: 30H12 anti-PSA antibody without peptide. […]\n(§2) The specificity of p65 and p66 peptides was tested in a competition assay using anti-PSA antibodies and PSA-NCAM expressing cells. […] The binding specificity was examined in greater detail by testing peptide recognition by another anti-PSA mononclonal antibody (MenB). […] Thus, p65 and p66 mimotopes appear to be specific for a unique (idiotypic) determinant."}, "[4]": {"tested_on": "30H12 antibody", "experiment": "ELISA with peptide-BSA conjugate on 30H12-coated plates", "type": "binding", "settings": "no competitor, FIG. 12A", "from_the_text": "FIG. 12A: ELISA using 30H12 anti-PSA monoclonal antibody-coated plates.\nThe specificity of the cyclic peptides was investigated in an ELISA assay using plates coated with 30H12 antibody, following the protocol as described above for the competitive ELISA, with the exception that the competitor was omitted."}, "[5]": {"tested_on": "Mouse dorsal root ganglion explants (E13.5)", "experiment": "Dorsal root ganglion explant culture: neurite outgrowth and fasciculation", "type": "cell-based", "experimental": "E13.5 DRGs were dissected out from mice embryos in HBSS medium and seeded on glass coverslips coated with polylysine or with peptides linked to BSA. Explants were cultured in the presence or the absence of the peptides under soluble form (40 μM) in two ml of neurobasal medium (DMEM/Ham's F12, 3:1 (V/V), GIBCO, buffered with 20 mM Hepes), supplemented as described in Faivre-Sarrailh et al., J. Cell. Sci., 1999, 18, 3015-3027 and Chazal et al., J.Neurosci., 2000, 20, 1446-1457.\nFixed DRGs (Dorsal Root ganglia) explants and sections were incubated at 4° C. respectively 2 hr with an anti-neurofilament (SMI-31, dilution 1:800, STERNBERGER MONOCLONALS) and overnight with an anti-PSA antibody (dilution 1:200, Rougon et al, J. Cell. Biol., 1986, 103, 2429-2437). Revelation was performed by 1 hr incubation with the corresponding fluorescent-labeled secondary antibody (Goat anti-mouse IgM or IgG conjugated with texas red, IMMUNOTECH)\nas §1\nMouse dorsal root ganglion explants (E13.5) were cultured in the presence of p65 and p66 cyclic mimetic peptides, either in soluble form or coated on the microplates as BSA conjugates. Cells cultured in the absence of peptides or in the presence of reverse peptides (coated or in soluble form) were used as controls."}, "[6]": {"tested_on": "chick retina axons", "experiment": "Intravitreal injection in chick embryo, retinal whole mount: axon fasciculation and guidance in vivo", "settings": "injected into chicken embryo eyes at E3, retina observed at E9", "experimental": "The dashed rectangle indicates the area from which photographs were taken. Arrows point toward the optic fissure. Axons of E9 chick retina injected at E3 with the reverse peptide (C,F) or the p65 peptide (D,G,E,H). Arrowheads show examples of axons that leave their fascicle and run perpendicularly to it.\nInjections were performed as described in Monnier et al. (Developmental Biology, 2001, 229, 1-14). Briefly, a 2×2 cm window was cut into the shell over E3 chick embryos. One μl of Fast green with 10 mM of p65 or reverse peptide was injected into the right eye vitreous body using a capillary. After a five-days incubation at 37° C., (E8) retinae were dissected, spread onto nitrocellulose filters (MILIPORE), and fixed with 4% paraformaldehyde solution in PBS. Two small DiI (1,1′-dioctadecyl-3,3,3′,3′-tetramethylindocarbocyanine perchlorate) crystals were applied dorsally to the optic fissure. Retinae were stored in the dark at 37° C. for 10 days until the dye reached the axonal growth cones in the fissure, mounted in glycerol:PBS (9:1, v:v) and analysed using confocal microscopy."}, "[7]": {"tested_on": "MenB anti-PSA antibody", "experiment": "Competitive binding to PSA-NCAM expressing cells (MenB)", "experimental": "FIGS. 12B, 12C and 12D: competitive binding to PSA-NCAM expressing cells. B: pre-incubation of p65 (1 mM) or p66 (1 mM) with MenB anti-PSA antibody. C: 30H12 anti-PSA antibody without peptide. D: pre-incubation of p65 (1 mM) or p66 (1 mM) with 30H12 anti-PSA antibody.\nas §2"}, "[8]": {"settings": "peptide in coated form (BSA conjugate)"}, "[9]": {"settings": "peptide in soluble form (40 μM), versus controls"}},
  "note": "“Also recorded” adds a separate entry of the source.",
  "data": [
    {"sequence": "CSKIASMETGCG [p66]", "values": [
      {"measurement": "Increase in the rate of migration of the neuronal precursors compared with the control without peptide", "setting": "[1]", "result": "+26%"},
      {"measurement": "Rate of migration of the neuronal precursors and chain-like arrangement", "setting": "[2]; SVZ explants in Matrigel, FIG. 4", "result": "increases the rate of migration"},
      {"measurement": "PSA-dependence of the migration effect", "setting": "[2]; with endo N treatment", "result": "abolished by endo N treatment"},
      {"measurement": "Binding of 30H12 monoclonal antibody to PSA-NCAM expressing cells after pre-incubation with peptide", "setting": "[3]", "result": "prevented its binding"},
      {"measurement": "Binding of cyclic peptides to 30H12 antibody in ELISA", "setting": "[4]", "result": "highest binding"},
      {"measurement": "Fasciculation", "setting": "[5]; [8]", "result": "opposite effect on fasciculation"},
      {"measurement": "Neurite outgrowth", "setting": "[5]; [8]", "result": "no effect on neurite outgrowth; also recorded: no significant increase"},
      {"measurement": "Axonal growth", "setting": "[5]; [9]", "result": "significant increase in axonal growth"},
      {"measurement": "Fasciculation of axon bundles", "setting": "[5]; [9]", "result": "clear defasciculation of axon bundles"},
      {"measurement": "Increase of neurite outgrowth compared to the controls", "setting": "[5]; peptide in soluble form, mean length of the longest neurite", "result": 21, "unit": "%"},
      {"measurement": "Axon guidance and fasciculation in retina in vivo", "setting": "[6]", "result": "axons guidance and fasciculation defects"},
      {"measurement": "Recognition of PSA-NCAM by MenB after pre-incubation with peptide", "setting": "[7]; FIG. 12C", "result": "did not prevent recognition of PSA-NCAM"},
      {"measurement": "Antibody specificity of peptide binding (30H12 versus MenB)", "setting": "[7]; in words", "result": "bind only to 30H12"}
    ]}
  ]
}
